Assay results: patent publication US20250000869A1, “TOPICAL COMPOSITIONS OF 2-PHENYL-3, 4-DIHYDROPYRROLO [2, L-F] [1, 2, 4] TRIAZINONE DERIVATIVES AND USES THEREOF” (TOPADUR PHARMA AG, priority 2021, published 2025)

Assays:
C57Bl/6J mice = test: Ulcer core perfusion of full thickness excisional cutaneous wounds by LSCI/LASCA; format: in vivo; settings: single dose 25 μl per wound, almost all times of measurements
Procedure: Effects of a single dose of Topical Composition A2, Topical Composition A4, and Vehicle Composition A, when administered on the perfusion of the ulcer core of full thickness excisional cutaneous wounds in C57B1/6J mice was investigated. Thus, Topical Compositions A2 and A4 were applied in a dose volume of 25 μl per wound. Each individual mouse had surgery for two wounds located symmetrical to the dorsal midline using 8 mm diameter punch biopsy devices.
Topical Compositions A2 and A4 or Vehicle Composition A were randomly administered to one or the other wound under a blinded protocol. This procedure enabled an intra-individual comparison between Compound 1 and its composition vehicle. Perfusion of the ulcer core as well as of the periulcer region was separately measured by Laser Speckle Contrast Imaging (LSCI)/Laser Speckle Contrast Analysis (LASCA) using a Perimed device. LASCA wound perfusion measurements of digital ulcers in SSc were previously shown to correlate with time to healing (Barsotti S et al Clin Rheumatol. (2020) 39(1):69-75).
In detail, a single application of Topical Compositions A2 and A4 or Vehicle Composition A, each at a volume of 25 μl per wound was randomly administered either to the right or left of two full thickness cutaneous wounds per mouse generated by 8 mm punch biopsies and symmetrically to the dorsal midline, at 24 h after surgery. […]

[1] = Plasma concentrations after topical, on wound administration (satellite study, LC-MS/MS); format: in vivo, C57BL/6J mice
Procedure: In order to address the systemic exposure following topical, on wound administration of Compound 1, in a satellite study, plasma concentrations of Compound 1 was measured. To this end, eight male C57BL/6J mice (12 weeks of age, body weight 26.8±0.4 g (Mean±SD)) underwent surgery for generation of one full thickness, excisional, cutaneous wounds, in an identical procedure as described above. The study was performed in C57BL/6J mice due to limited availability of uPAR−/− mice. As described before, Compound 1 (in form of Topical Composition A2) was added in a dose volume of 25 μl to the wounds as a single dose. The dose related to body weight was approximately 0.565 μg/kg (from a total of 25 μl of 1 μM Compound 1 per mouse). Peripheral venous blood was sampled from the tail tip (or by cardiac puncture for the final sampling) in four mice at time points (min) 1, 5, 15, 30, 60 post administration of Compound 1 and in another four mice at time points (h) 1, 2, 4, 6, 24 post administration of Compound 1. Plasma was generated and Compound 1 measured by LC-MS/MS. The LLOQ for Compound 1 was at 800 pg/ml corresponding to 1.32 nM. […] Considering the plasma protein binding of Compound 1 in mice with unbound fractions (fu) of 0.08% for Compound 1 the unbound plasma concentrations should have been <[…] for Compound 1, corresponding to <[…] for Compound 1 when extrapolated to administration to two wounds per mice as this was done in the main efficacy study, under the assumption of dose linearity.

For `CCCOc1ccc(S(=O)(=O)N2CCC(CCO[N+](=O)[O-])CC2)cc1-c1nn2c(CCC)c(/C=N/O)c(C)c2c(=O)[nH]1` [Compound 1, 2-[1-(3-{6-[(1E)-(hydroxyimino)methyl]-5-methyl-4-oxo-7-propyl-3H,4H-pyrrolo[2,1-f][1,2,4]triazin-2-yl}-4-propoxybenzenesulfonyl)piperidin-4-yl]ethyl nitrate], the “ulcer core perfusion compared to Vehicle Composition A” value (C57Bl/6J mice) was “increases perfusion of ulcer core”, the “unbound plasma concentration extrapolated to two wounds per mice” value ([1]; assumption of dose linearity) was under 2120 nM and the unbound plasma concentration ([1]; calculated from LLOQ and fu, one wound per mouse) was under 1060 nM. The “plasma concentration of Compound 1” value ([1]; single on wound dose 25 μl Topical Composition A2 (approx. 0.565 μg/kg), 1 min to 24 h, all time points and mice, LLOQ 800 pg/ml) was under 1.32 nM.
